Experimental data: patent US5391540A, “Substituted pyridine compounds” (Rohm and Haas Company, priority 1993, dated 1995)

Key:
Experiment in all cases: Pre-emergent herbicidal activity (Table A)
Type in all cases: in vivo
Annual Bluegrass = conditions: pre-emergence, Anbg, 11.2 kg/ha, 10-14 days, read-out: herbicidal rating (% inhibition)
Summary of the method: (§1)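 Seeds were sown on compacted topsoil and covered with soil into which test compound (in acetone or water carrier) had been mixed at 11.2 kg/ha. Pans were kept watered on a greenhouse bench, and percent inhibition was scored as a rating about 10-14 days (usually 11) after treatment.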

Wild Buckwheat = conditions: Fallopia convolvulus, pre-emergence, Wibw, 11.2 kg/ha, 10-14 days, read-out: herbicidal rating (% inhibition)
Summary of the method: as §1

Indian Mustard = conditions: Brassica juncea, pre-emergence, Inmu, 11.2 kg/ha, 10-14 days, read-out: herbicidal rating (% inhibition)
Summary of the method: as §1

Seedling Johnsongrass = conditions: Sorghum halepense, pre-emergence, Sejg, 11.2 kg/ha, 10-14 days, read-out: herbicidal rating (% inhibition)
Summary of the method: as §1

Cocklebur = conditions: Xanthium strumarium, pre-emergence, Cobu, 11.2 kg/ha, 10-14 days, read-out: herbicidal rating (% inhibition)
Summary of the method: (§2)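 Seeds or perennial propagules set on compacted topsoil, then covered with soil mixed with a known amount of test compound applied in acetone or water carrier. Ratings assigned on a scale based on percent inhibition of each species.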

Morningglory = conditions: Ipomoea, pre-emergence, Mogl, 11.2 kg/ha, 10-14 days, read-out: herbicidal rating (% inhibition)
Summary of the method: as §2

Yellow Nutsedge = conditions: Cyperus, pre-emergence, Yens, 11.2 kg/ha, 10-14 days, read-out: herbicidal rating (% inhibition)
Summary of the method: as §2

Downy Brome = conditions: Bromus tectorum, pre-emergence, Dobr, 11.2 kg/ha, 10-14 days, read-out: herbicidal rating (% inhibition)
Summary of the method: as §2

Velvetleaf = conditions: Abutilon theophrasti, pre-emergence, Vele, 11.2 kg/ha, 10-14 days, read-out: herbicidal rating (% inhibition)
Summary of the method: as §2

Barnyardgrass = conditions: Echinochloa crus-galli, pre-emergence, Bygr, 11.2 kg/ha, 10-14 days, read-out: herbicidal rating (% inhibition)
Summary of the method: as §2

SMILES | inhibition at 11200 g/ha (Annual Bluegrass) | inhibition at 11200 g/ha (Wild Buckwheat) | inhibition at 11200 g/ha (Indian Mustard) | inhibition at 11200 g/ha (Seedling Johnsongrass) | inhibition at 11200 g/ha (Cocklebur) | inhibition at 11200 g/ha (Morningglory) | inhibition at 11200 g/ha (Yellow Nutsedge) | inhibition at 11200 g/ha (Downy Brome) | inhibition at 11200 g/ha (Velvetleaf) | inhibition at 11200 g/ha (Barnyardgrass)
COC(=O)c1c(OC)nc(C(F)(F)F)c(C(=O)n2ccc(F)n2)c1CC(C)C [Compound 102, 3-pyridinecarboxylic acid, 5-[(3-fluoro-1H-pyrazo1-1-yl)carbonyl]-2-methoxy-4-(2-methylpropyl)-6-(trifluoromethyl)-, methyl ester] | 75 to 100% | 75 to 100% | 75 to 100% | 75 to 100% | 75 to 100% | 75 to 100% | 75 to 100% | 75 to 100% | 75 to 100% | 75 to 100%
COC(=O)c1c(OC)nc(C(F)(F)F)c(-c2ncco2)c1CC(C)C [Compound 130, 3-pyridinecarboxylic acid, 2-methoxy-4-(2-methylpropyl)-5-(2-oxazolyl)-6-(trifluoromethyl)-, methyl ester] | 75 to 100% | 75 to 100% | 75 to 100% | 75 to 100% | 25 to 49% | 75 to 100% | 75 to 100% | 75 to 100% | 75 to 100% | 75 to 100%
COC(=O)c1c(OC)nc(C(F)(F)F)c(C(=O)Cl)c1C1CCC1 [Compound 138, 3-pyridinecarboxylic acid, 5-(chlorocarbonyl)-4-cyclobuty1-2-methoxy-6-(trifluoromethyl)-, methyl ester] | 0 to 24% | 0 to 24% | 0 to 24% | 0 to 24% | 0 to 24% | 0 to 24% | 0 to 24% | 0 to 24% | 0 to 24% | 0 to 24%
COC(=O)c1c(OC)nc(C(F)(F)F)c(C(=O)NNC(C)=O)c1CC(C)C [Compound 100, 3,5-pyridinedicarboxylic acid, 2-methoxy-4-(2-methylpropyl)-6-(trifluoromethyl)-, 3-methyl ester 5-(2-acetylhydrazide)] | 75 to 100% | 0 to 24% | 0 to 24% | 0 to 24% | 0 to 24% | 0 to 24% | 0 to 24% | 0 to 24% | 0 to 24% | 0 to 24%
COC(=O)c1c(OC)nc(C(F)(F)F)c(C2OCCS2(=O)=O)c1CC(C)C (centres unmarked) [Compound 127, 3-pyridinecarboxylic acid, 2-methoxy-4-(2-methylpropyl)-5-(3,3-dioxo-1,3-oxathiolan-2-yl)-6-(trifluoromethyl)-, methyl ester] | 75 to 100% | 50 to 74% | 50 to 74% | 75 to 100% | 0 to 24% | 25 to 49% | 0 to 24% | 75 to 100% | 25 to 49% | 75 to 100%
